# Experimental data published in patent US10669266B2, “Oxadiazole inhibitors of HIPK2 for treating kidney fibrosis” (ICAHN SCHOOL OF MEDICINE AT MOUNT SINAI, priority 2017, dated 2020).
# Experiments:
# [1] = biological target: T1, HIPK2-Smad3 interaction (Homo sapiens, UniProt Q9H2X6); test: His6-HIPK2 cobalt resin pull-down of endogenous Smad3 in 293T cells; format: cell-based; settings: 293T cells overexpressing His6-HIPK2, two different doses
# T1 construct: host or cells: HEK 293T
# Protocol: 4×Smad binding element-driven firefly luciferase (SBE4-Luc) plasmid was purchased from Addgene (#16495). Renilla luciferase reporter plasmid (pRL) was purchased from Promega. Active domain deleted HIPK2 was previously described by Jin et al. [Nat Med, 18: 580-588]. The His6-HIPK2 construct was generated by PCR amplification of coding region using plasmid containing human HIPK2 gene (GeneCopoeia™) as the template.
# 293T cells were lysed in equilibration/wash buffer (50 mM sodium phosphate, 300 mM sodium chloride, 10 mM imidazole; pH 7.4) 48 hours after transfection of His6-tagged HIPK2 expression plasmid. Cleared cell lysate was incubated with HisPur Cobalt resin (Thermo Fisher Scientific, NY) on end-over-end rotator at 4° C. for 2 hours. After centrifugation (700×g, 2 min, 4° C.), the resin was washed 3 times in a wash buffer. The bound protein complexes were finally eluted with elution buffer (50 mM sodium phosphate, 500 mM sodium chloride, 150 mM imidazole; pH 7.4) and subjected to western blot analysis.
# (§1) Cells were lysed in M-PER mammalian protein extraction reagent (#78501, Thermo Fisher Scientific, NY) containing protease inhibitor cocktail (#11836153001, Roche) and phosphatase inhibitors (50 mM NaF, 10 mM β-glycerophosphate, 5 mM sodium pyrophosphate, 2 mM Na3VO4). Total protein concentration was measured using the Bradford reagent (#500-0006, Bio-Rad). […]
# [2] = tested on: Tg26 mice; test: Tg26 (HIV-1 transgenic) mouse model of kidney disease; format: in vivo
# Protocol: Tg26 mice of FVB/N genetic background bearing a defective HIV-1 provirus lacking gag-pol have been described by Feng et al. [J Am Soc Nephrol 2009; 20: 2138-2146]. Six-week old heterozygous Tg26 mice were used in this study. Wildtype littermates were used as controls. Mice in the treatment group received test compound dissolved in DMSO and diluted in saline (5% DMSO) by oral gavage at a dose of 200 μg/kg body weight per day. Mice in the control group received the same volume of 5% DMSO/saline vehicle. The mice were treated for a total of 4 weeks and sacrificed at age of 10 weeks. The UUO model was established in male C57BL/6 mice (The Jackson Laboratory) by ligation of the left ureter as described by Jin et al. [Lab Invest, 93: 801-811, 2013]. After the operation, UUO mice were randomly divided into control group (vehicle) and treatment group. Mice were fed with test compound by oral gavage at a dose of 200 μg/kg body weight per day for 7 days.
# Immunofluorescence staining was conducted on paraffin-embedded kidney sections using standard procedures. Briefly, deparaffinized sections were incubated with primary antibody against collagen I (1:50, #NB6-00-4-8, Novus) at 4° C. overnight. After being washed, sections were incubated with Alexa Fluor488-labelled second antibody (1:200, #A11034, Invitrogen) at room temperature for 1 hour in darkness. After nuclei were stained with 4′, 6-diamidino-2-phenyllindole (DAPI) slides were mounted using Aqua PolyMount (Polysciences, Inc) and images were acquired using AxioVision IIe microscope with a digital camera.
# Renal fibrosis was evaluated histologically by Sirius red staining on paraffin slides of mice kidney tissues according to the manufacturer's instructions (#ab150681, Abcam). Masson's trichrome staining on paraffin slices of mice kidney tissue was performed according to manufacturer's instructions (#87019, Thermo Scientific).
# Tg26 mice are known to develop proteinuria starting from 4 weeks of age and the proteinuria peaks usually around 8-10 weeks of age. Tg26 mice also develop significant glomerulosclerosis and renal failure by 8-10 weeks of age. To determine whether compounds of the invention could reverse kidney injury that has been already developed, we started to treat Tg26 mice with either vehicle or Example 1 from age of 6 weeks for a total of 4 weeks, and the mice were sacrificed at age of 10 weeks.
# [3] = tested on: Smad3 phosphorylation; test: TGF-β1-induced Smad3 phosphorylation in hRTECs (western blot); format: cell-based, human; settings: pretreatment, TGF-β1 5 ng/ml for 20 minutes
# Protocol: HEK 293T (293T) cells (ATCC) were cultured in Dulbecco's Modified Eagle's medium (Invitrogen) containing 10% fetal bovine serum (FBS), 0.5% penicillin and streptomycin at 37° C. and 5% CO2 humidified environment. Human primary tubular cells (PromoCell GmbH, Heidelberg, Germany) were cultured in Renal Epithelial Cell Growth Medium-2 (Promocell GmbH) with supplements according to manufacturer's protocol human primary renal tubular epithelial cells with <5 passages were used for all studies. For HIV infection of hRTECs, pNL4-3:ΔG/P-EGFP, a gag/poi-deleted HIV-1 construct that contains EGFP in the gag open reading frame, and pHR-IRES-EGFP, a control EGFP construct, were used to generate the VSV-G pseudotyped virus. Cells were infected with HIV pseudotyped virus or control virus for 2 days before the treatment with test compound.
# as §1, with “Bio-Rad). Proteins were separated on SDA-PAGE and transferred to nitrocellulose membrane.” for “Bio-Rad).”
# [4] = biological target: HIPK2 (Homo sapiens, UniProt Q9H2X6); test: HIPK2 kinase assay (ProQinase GmbH); format: biochemical; parameters: purchased ProQinase GmbH (Freiburg, Germany), assay service; settings: increasing concentrations
# Sequence of HIPK2 (Q9H2X6 whole entry): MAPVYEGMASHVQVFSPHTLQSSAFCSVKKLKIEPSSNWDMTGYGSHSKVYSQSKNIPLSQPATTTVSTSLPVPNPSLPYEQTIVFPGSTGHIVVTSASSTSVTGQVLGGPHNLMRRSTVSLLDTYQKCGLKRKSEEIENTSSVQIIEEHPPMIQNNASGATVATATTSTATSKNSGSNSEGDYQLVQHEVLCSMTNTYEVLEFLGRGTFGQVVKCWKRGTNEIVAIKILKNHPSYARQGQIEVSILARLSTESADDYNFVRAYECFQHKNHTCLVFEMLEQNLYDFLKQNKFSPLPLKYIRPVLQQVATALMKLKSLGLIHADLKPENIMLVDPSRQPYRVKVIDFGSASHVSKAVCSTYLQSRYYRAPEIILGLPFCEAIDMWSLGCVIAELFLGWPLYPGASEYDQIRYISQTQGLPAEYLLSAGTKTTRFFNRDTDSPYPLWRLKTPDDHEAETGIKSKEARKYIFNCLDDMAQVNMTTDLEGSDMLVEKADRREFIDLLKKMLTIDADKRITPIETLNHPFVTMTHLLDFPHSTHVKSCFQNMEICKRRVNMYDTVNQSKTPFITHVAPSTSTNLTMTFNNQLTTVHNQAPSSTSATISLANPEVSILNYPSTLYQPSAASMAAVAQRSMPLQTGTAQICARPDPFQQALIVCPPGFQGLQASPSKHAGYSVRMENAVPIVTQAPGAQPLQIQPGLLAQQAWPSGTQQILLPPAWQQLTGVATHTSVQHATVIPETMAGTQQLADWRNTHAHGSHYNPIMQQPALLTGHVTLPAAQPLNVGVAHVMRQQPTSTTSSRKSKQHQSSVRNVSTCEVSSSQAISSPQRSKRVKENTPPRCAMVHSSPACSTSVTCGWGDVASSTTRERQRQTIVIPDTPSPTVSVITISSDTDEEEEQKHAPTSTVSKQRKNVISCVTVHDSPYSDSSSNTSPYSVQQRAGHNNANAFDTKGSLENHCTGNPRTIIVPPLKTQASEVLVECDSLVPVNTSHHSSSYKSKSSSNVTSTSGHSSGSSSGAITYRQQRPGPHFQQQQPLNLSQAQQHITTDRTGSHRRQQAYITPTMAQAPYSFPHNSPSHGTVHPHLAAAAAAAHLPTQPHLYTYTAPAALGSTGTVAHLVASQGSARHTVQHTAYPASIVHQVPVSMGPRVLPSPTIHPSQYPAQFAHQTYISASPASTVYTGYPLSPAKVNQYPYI
# Protocol: HIPK2 kinase assay was performed by ProQinase GmbH (Freiburg, Germany).
# Kinase assay was performed by ProQinase GmbH (Freiburg, Germany).
# [5] = Tg26 mice treated from age of 6 weeks for 4 weeks, vs vehicle
# [6] = Tg26 mice, post-treatment (week 4), 200 μg/kg/day oral gavage
# [7] = Tg26 mice, pre-treatment (week 0)
# [8] = Wildtype mice, post-treatment (week 4), 200 μg/kg/day oral gavage
# [9] = Wildtype mice, pre-treatment (week 0)
# T1 sequence (Q9H2X6 whole entry): as above
compound,measurement,setting,value
"COc1ccc2cc(-c3nc(-c4ccc(Br)cc4)no3)cnc2c1 [Example 1, 3-(4-Bromophenyl)-5-(7-methoxyquinolin-3-yl)-1,2,4-oxadiazole]",interaction between Smad3 and HIPK2 (His6-HIPK2 pull-down),[1],reduced the interaction between Smad3 and HIPK2 in a dose-dependent manner
same,Smad3 phosphorylation and α-SMA expression,[2]; Tg26 mice,significantly reduced
same,"kidney injury and renal fibrosis (picrosirius red, Masson's trichrome, Collagen I immunofluorescence)",[2]; Tg26 mice,attenuated kidney injury and renal fibrosis
same,proteinuria,[2]; [5],significantly reduced proteinuria
same,renal function,[2]; [5],improved renal function
same,BUN,[2]; [6],22.404 ± 4.678 mg/dL
same,Urinary Albumin:Creatinine Ratio,[2]; [6],19.917 ± 5.838 µg/µg
same,BUN,[2]; [7],23.799 ± 1.990 mg/dL
same,Urinary Albumin:Creatinine Ratio,[2]; [7],23.321 ± 12.339 µg/µg
same,BUN,[2]; [8],18.875 ± 3.485 mg/dL
same,Urinary Albumin:Creatinine Ratio,[2]; [8],0.036 ± 0.008 µg/µg
same,BUN,[2]; [9],21.091 ± 3.009 mg/dL
same,Urinary Albumin:Creatinine Ratio,[2]; [9],0.033 ± 0.007 µg/µg
same,Smad3 phosphorylation induced by TGF-β1,[3],gradually inhibited
same,inhibition of HIPK2 kinase activity,[4],No inhibition
